Assay results published in article PMC3357532, “Intracellular Loop 2 Peptides of the Human 5HT1a Receptor are Differential Activators of Gi” (International Journal of Peptides, 2012).
Like-named read-outs stand apart in the source and are kept apart here. One block for each molecule: values may come before it. Where no end group is shown, it is not given here.

Legend:
[1] = test system: CHO cells expressing the human 5HT1aR; test: Forskolin-stimulated cAMP production (EIA); assay type: cell-based; conditions: for [cAMP] (SEM), relative to FSK-stimulated control: 30 uM FSK, 100 uM IBMX, 20 min 37°C, control = 100; for FSK stimulated cAMP (%): Figure 5, IBMX, FSK control = 100
Protocol: CHO cells were cultured to confluency in 12- or 24-well plates. Medium was aspirated, and the cells were rinsed twice in warm, serum-free F-12 medium. Cells were incubated for 20 min. at 37°C in 0.5 mls of serum-free F-12 medium containing 100 uM isobutylmethylxanthine (IBMX) and the following substances (final concs.) alone or in combination (see Figures 3 and 5): 30 μM forskolin (FSK; for all treatments); 1 μM 5-HT; peptide concentrations as noted in figure legends. Reactions were stopped by aspiration of medium and addition of 0.5 mL of 100 mM HCl. After 10 min., well contents were removed and centrifuged at 4000 rpm. Supernatants were diluted in 100 mM HCl, and cAMP was quantified directly in a microplate format by enzyme immunoassay (EIA) with a kit from Assay Designs (Ann Arbor). Triplicate-independent samples were assayed.

[2] = test system: Gi in H5-HT1aR membranes from transfected CHO cells; test: [35S]GTPγS incorporation into Gi; assay type: biochemical, human; conditions: for GTP Incorp. (SEM), γ-[35S]-GTP into Gi, percent of control: peptide 30 uM (Figure 2), basal control = 100, 30 min 30°C
Protocol: H5-HT1aR membranes from transfected CHO cells were incubated with 5-HT (0.1 μM) and/or peptide concentrations as noted in figure legends (see Figures 2 and 4) and the following incubation mixture: 20 mM HEPES buffer, pH 7.4, 5 mM MgCl2, 1 mM EDTA, 1 mM DTT, 100 mM NaCl, 100 uM GDP, 10 μM pargyline, 0.2 mM ascorbate, and 0.1 nM [35S]GTPγS [53, 58]. Mixtures were incubated for 30 min. at 30°C, and were terminated by dilution in cold buffer. The mixture was filtered on GF/C filters, rinsed twice in buffer, dried and counted by liquid scintillation. All values reported in are for specific binding (total nonspecific) of triplicates. Nonspecific binding was determined in the presence of cold γ-S-GTP (10 uM). Negative control is the above mixture minus test drug or 5HT. Positive control contains 5HT.

[3] = test system: CHO cells expressing the human 5HT1aR; conditions: cited from earlier work
Source text: (§1) Table 2 ic2 Peptide mimic effect on [3H]8-OH-DPAT binding. All binding inhibition values are percent of control agonist (ag.) bound. The upper portion of the table is for peptides nearer the C-terminus, including P11 from Thiagaraj et al., 2007 [53]. These peptides decreased the specific high affinity binding of 5HT1aR agonist [^3H]-8-OH-DPAT by 50% at the given concentration. The lower portion | column: [cAMP] (SEM) || Table 3 ic3 Peptide mimic coupling and signal transduction data. Summary of data generated for all ic3 experiments with P12 and P13. P1 is included as a reference, from Hayataka et al., 1998 [49]. Nominal values for control agonist binding were 400 fmoles/mg protein. | column: % Inhibition of FSK-stimulated cAMP

[4] = molecular target: T1, H5-HT1aR (Homo sapiens, UniProt P08908); conditions: cited from earlier work
T1 construct: expressed in transfected cells; host or cells: CHO cells (Chinese hamster ovary), crude membranes
T1 sequence (P08908 1-422): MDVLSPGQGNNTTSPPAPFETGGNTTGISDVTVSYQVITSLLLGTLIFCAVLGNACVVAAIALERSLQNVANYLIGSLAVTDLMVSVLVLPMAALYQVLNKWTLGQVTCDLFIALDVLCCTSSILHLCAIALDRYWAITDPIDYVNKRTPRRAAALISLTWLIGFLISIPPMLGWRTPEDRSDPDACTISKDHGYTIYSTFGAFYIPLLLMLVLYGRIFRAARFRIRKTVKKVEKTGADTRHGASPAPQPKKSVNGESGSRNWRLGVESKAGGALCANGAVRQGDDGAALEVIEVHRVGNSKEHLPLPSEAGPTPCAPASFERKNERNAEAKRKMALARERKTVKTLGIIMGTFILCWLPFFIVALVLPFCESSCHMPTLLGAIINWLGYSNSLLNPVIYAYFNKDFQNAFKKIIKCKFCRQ
Source text: as §1, with “Conc. (uM); % cont. ag, bound,” for “[cAMP]”, “Agonist (%) inhibition” for “% Inhibition of FSK-stimulated cAMP”

[5] = test system: Gi in H5-HT1aR membranes from transfected CHO cells; conditions: cited from earlier work
Source text: as §1, with “GTP Incorp.” for “[cAMP]”, “[35S]-γ-S-GTP incorporation% above conro” for “% Inhibition of FSK-stimulated cAMP”

[6] = molecular target: T1, H5-HT1aR; test: Inhibition of agonist [3H]8-OH-DPAT binding (measure of receptor-G-protein coupling)
Protocol: Cells were trypsinized and centrifuged at low speed in ice-cold medium. The pellet was resuspended in ice-cold Earle's Balanced Salt Solution followed by centrifugation. Cells were resuspended in 10 mL of ice-cold binding buffer (50 mM Tris, 4 mM CaCl2, 10 μM pargyline, and pH 7.4), homogenized with Teflon-glass, and centrifuged for 450,000 g-min. at 4°C. For a crude membrane preparation, the pellet was resuspended in 30 mL of ice-cold binding buffer, homogenized on Teflon-glass and then by Polytron (setting 4) for 5 seconds, and stored on ice and assayed within the next 1.5 hours.
Binding of the agonist [3H]8-OH-DPAT ([3H]8-hydroxy-2-(di-n-propylamino)tetralin) to H5-HT1aR followed well-characterized protocols. Radioligands were purchased from New England Nuclear (NEN), Boston, MA, and 1 mL reaction mixtures, in triplicate, were incubated for 30 min. in a 30°C shaker. The 1 mL mixture was 700 μL of receptor preparation; 100 μL of binding buffer (for total binding) or 10 μM 5-HT (for nonspecific binding), 100 μL of the tritiated agent (concentration of 0.5 nM [3H] 8-OH-DPAT), and 100 μL of peptide or binding buffer in the case of controls.
Reactions were stopped by addition of 4 mL of ice-cold 50 mM Tris buffer, pH 7.4, and vacuum filtration on glass fiber filters (Whatman GF/B). Filters were rinsed twice in 5 mL of ice-cold Tris buffer, dried, and counted in 5 mL of Ecoscint (National Diagnostics) liquid scintillation fluid in a Beckman LS 6500. Homogenates were assayed for protein to maintain a nominal value of 50 μg protein per filter. All tubes were run in triplicate.

[7] = molecular target: Gi (G protein coupled to the human 5HT1a receptor in CHO cells) (Chinese hamster (endogenous in CHO))
[8] = molecular target: Gi (G protein coupled to the human 5HT1a receptor in CHO cells) (Chinese hamster (endogenous in CHO)); remark: listed apart in the source
[9] = CHO H5-HT1aR membranes, 0.5 nM [3H]8-OH-DPAT, 30 min 30°C, shallow curves, read-out: Conc. (uM) at which specific high affinity [3H]8-OH-DPAT binding is decreased by 50% (IC50)

Molecule: NCCc1c[nH]c2ccc(O)cc12 [Peptide 5HT, 5-hydroxytryptamine, reference compound]
[cAMP] (SEM), relative to FSK-stimulated control ([1]; 1 uM 5-HT): 21 (4) % | FSK stimulated cAMP (%) ([1]; 5HT alone (1 uM per method)): 24 ± 1%

Molecule: DPIDYVNKRT [Peptide P25, ic2 loop peptide mimic of H5HT1aR]
GTP Incorp. (SEM), γ-[35S]-GTP into Gi, percent of control [2]: 126 (10) % | [cAMP] (SEM), relative to FSK-stimulated control ([1]; peptide 30 uM (Figure 3)): 64 (3) %

Molecule: IALDRYWAITD [Peptide P11, ic2 N-terminal (TM3/ic2) peptide mimic of H5HT1aR from a previous study, Thiagaraj et al., 2007]
[cAMP] (SEM), relative to FSK-stimulated control ([3]; peptide 30 uM (Figure 3), 30 uM FSK, IBMX, ref Thiagaraj et al., 2007 [53], SEM): 87 (8) % | IC50 ([4]; CHO H5-HT1aR membranes, ref Thiagaraj et al., 2007 [53], read-out: Conc. (uM) at which specific high affinity [3H]8-OH-DPAT binding is decreased by 50% (IC50)): 7 µM | GTP Incorp. (SEM), γ-[35S]-GTP into Gi, percent of control ([5]; peptide 30 uM (Figure 2), ref Thiagaraj et al., 2007 [53], SEM): 100 (3) %

Molecule: IDYVNKRTPR [Peptide P26, ic2 loop peptide mimic of H5HT1aR]
GTP Incorp. (SEM), γ-[35S]-GTP into Gi, percent of control [2]: 111 (9) % | [cAMP] (SEM), relative to FSK-stimulated control ([1]; peptide 30 uM (Figure 3)): 100 (5) %

Molecule: IFRAARFRIRKTVKK [P1*]
inhibition ([3]; peptide 10 uM, ref Hayataka et al., 1998 [49], read-out: % Inhibition of FSK-stimulated cAMP): 10% | IC50 ([4]; [3H]8-OH-DPAT, ref Hayataka et al., 1998 [49], read-out: Agonist (%) inhibition: concentration giving 50% (IC50)): 3 µM | inhibition ([4]; peptide 3 uM, ref Hayataka et al., 1998 [49], read-out: Agonist (%) inhibition): 50% | [35S]-γ-S-GTP incorporation% above conro ([5]; peptide 1 uM, ref Hayataka et al., 1998 [49]): 30%

Molecule: ITDPIDYVNK [Peptide P24]
GTP Incorp. (SEM), γ-[35S]-GTP into Gi, percent of control [2]: 146 (17) % | [cAMP] (SEM), relative to FSK-stimulated control ([1]; peptide 30 uM (Figure 3)): 45 (7) %

inhibition ([6]; peptide 30 uM, maximum inhibition possible with the highest soluble concentration): 28%
Molecule: KTVKKVEKTG [Peptide P12, ic3 peptide mimic of H5HT1aR]
[35S]-γ-S-GTP incorporation% above conro ([2]; peptide 30 uM): 24% | Change in intracellular cAMP concentration (in words) ([1]; FSK-stimulated, peptide 30 uM (Figure 5)): not altered | FSK stimulated cAMP (%) ([1]; peptide alone 30 uM): 100 ± 6% | inhibition ([1]; peptide 30 uM, read-out: % Inhibition of FSK-stimulated cAMP): 0%

Molecule: LDRYWAITDP [Peptide P21]
IC50 [6, 9]: 15 µM

Molecule: RYWAITDPID [Peptide P22]
IC50 [6, 9]: 16 µM

Molecule: VKKVEKTGAD [Peptide P13]
IC50 ([6]; [3H]8-OH-DPAT, if 50% is listed, the concentration is the IC50, read-out: Agonist (%) inhibition: concentration giving 50% (IC50)): 15 µM | inhibition ([6]; peptide 15 uM): 50%

Molecule: WAITDPIDYV [Peptide P23]
IC50 [6, 9]: 30 µM

Molecule: YVNKRTPRPR [Peptide P27, ic2 loop peptide mimic of H5HT1aR, C-terminal end]
GTP Incorp. (SEM), γ-[35S]-GTP into Gi, percent of control [2]: 130 (7) % | [cAMP] (SEM), relative to FSK-stimulated control ([1]; peptide 30 uM (Figure 3)): 132 (6) %

IC50 of agonist inhibition: peptide concentration at which specific [3H]8-OH-DPAT binding to H5-HT1aR in CHO membranes falls to about 50% of control (uncoupling of receptor from G protein) [7]: 30 µM
B1: P23, ic2 loop peptide mimic of the human 5HT1a receptor (peptide)
peptide: WAITDPIDYV

IC50 of agonist inhibition: peptide concentration at which specific [3H]8-OH-DPAT binding to H5-HT1aR in CHO membranes falls to about 50% of control (uncoupling of receptor from G protein) [7]: 15 µM
B2: P21, ic2 loop peptide mimic of the human 5HT1a receptor (peptide)
peptide: LDRYWAITDP

% inhibition of FSK-stimulated cAMP at 30 uM peptide, CHO cells expressing H5HT1aR (negative: cAMP increased) [8]: -24 % inhibition | IC50 of agonist inhibition: peptide concentration giving 50% inhibition of [3H]8-OH-DPAT binding to H5-HT1aR in CHO membranes (uncoupling of receptor from G protein) [8]: 15 µM | [35S]-γ-S-GTP incorporation into Gi, % above control, at 30 uM peptide, CHO H5HT1aR membranes (% above control) [8]: 12
B3: P13, ic3 loop peptide mimic of the human 5HT1a receptor (peptide)
peptide: VKKVEKTGAD

IC50 of agonist inhibition: peptide concentration at which specific [3H]8-OH-DPAT binding to H5-HT1aR in CHO membranes falls to about 50% of control (uncoupling of receptor from G protein) [7]: 16 µM
B4: P22, ic2 loop peptide mimic of the human 5HT1a receptor (peptide)
peptide: RYWAITDPID

% inhibition of FSK-stimulated cAMP at 30 uM peptide, CHO cells expressing H5HT1aR [8]: -0 % inhibition | [35S]-γ-S-GTP incorporation into Gi, % above control, at 30 uM peptide, CHO H5HT1aR membranes (% above control) [8]: 24 | agonist ([3H]8-OH-DPAT) % inhibition at 30 uM peptide, H5-HT1aR in CHO membranes (maximum inhibition possible with the highest soluble concentration; uncoupling of receptor from G protein) [8]: 28 % inhibition
B5: P12, ic3 loop peptide mimic of the human 5HT1a receptor (peptide)
peptide: KTVKKVEKTG
